Data published in PubChem BioAssay AID248 (DTP/NCI, 2004).
“And” between values parts separate entries of the source, which are not always exact repeats. Equal values may be shown once. Inconclusive results and toxic doses are left out.

Test system: L1210 leukemia ip in BDF1 mice, survival T/C
Experiment: NCI In Vivo Anticancer Drug Screen. Data for tumor model L1210 Leukemia (intraperitoneal) in B6D2F1 (BDF1) mice
Conditions: endpoint: mean survival time, higher = longer survival
Method in brief: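 Tumor was transplanted into mice, which were then dosed with test compound or vehicle alone. Survival was recorded for each group, and the treated figure was expressed relative to the control figure.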

[1] = dose: 100.0 mg/kg/injection, schedule: Q04DX003 (ip), vehicle: Klucel (hydroxypropylcellulose) (HPC)
[2] = dose: 200.0 mg/kg/injection, schedule: Q04DX003 (ip), vehicle: Klucel (hydroxypropylcellulose) (HPC)
[3] = dose: 400.0 mg/kg/injection, schedule: Q04DX003 (ip), vehicle: Klucel (hydroxypropylcellulose) (HPC)
[4] = dose: 100.0 mg/kg/injection, schedule: Q01DX009 (ip), vehicle: Klucel (hydroxypropylcellulose) (HPC)
[5] = dose: 200.0 mg/kg/injection, schedule: Q01DX009 (ip), vehicle: Klucel (hydroxypropylcellulose) (HPC)
[6] = dose: 400.0 mg/kg/injection, schedule: Q01DX009 (ip), vehicle: Klucel (hydroxypropylcellulose) (HPC)
[7] = dose: 100.0 mg/kg/injection, schedule: Q04DX003 (ip), vehicle: saline with Tween-80
[8] = dose: 200.0 mg/kg/injection, schedule: Q04DX003 (ip), vehicle: saline with Tween-80
[9] = dose: 400.0 mg/kg/injection, schedule: Q04DX003 (ip), vehicle: saline with Tween-80
[10] = dose: 50.0 mg/kg/injection, schedule: Q01DX009 (ip), vehicle: saline
[11] = dose: 100.0 mg/kg/injection, schedule: Q01DX009 (ip), vehicle: saline
[12] = dose: 100.0 mg/kg/injection, schedule: Q04DX003 (ip), vehicle: saline
[13] = dose: 100.0 mg/kg/injection, schedule: Q04DX002 (ip), vehicle: Klucel (hydroxypropylcellulose) (HPC)
[14] = dose: 200.0 mg/kg/injection, schedule: Q04DX002 (ip), vehicle: Klucel (hydroxypropylcellulose) (HPC)
[15] = dose: 400.0 mg/kg/injection, schedule: Q04DX002 (ip), vehicle: Klucel (hydroxypropylcellulose) (HPC)
[16] = dose: 100.0 mg/kg/injection, schedule: Q04DX002 (ip), vehicle: saline
[17] = dose: 200.0 mg/kg/injection, schedule: Q04DX002 (ip), vehicle: saline
[18] = dose: 400.0 mg/kg/injection, schedule: Q04DX002 (ip), vehicle: saline
[19] = dose: 100.0 mg/kg/injection, schedule: Q01DX009 (ip), vehicle: saline with Tween-80
[20] = dose: 200.0 mg/kg/injection, schedule: Q01DX009 (ip), vehicle: saline with Tween-80
[21] = dose: 400.0 mg/kg/injection, schedule: Q01DX009 (ip), vehicle: saline with Tween-80
[22] = dose: 75.0 mg/kg/injection, schedule: Q01DX001 (ip), vehicle: saline
[23] = dose: 150.0 mg/kg/injection, schedule: Q01DX001 (ip), vehicle: saline
[24] = dose: 200.0 mg/kg/injection, schedule: Q01DX001 (ip), vehicle: carboxymethylcellulose (CMC)
[25] = dose: 400.0 mg/kg/injection, schedule: Q01DX001 (ip), vehicle: carboxymethylcellulose (CMC)

`CC(=O)N(C(C)=O)c1ccc2c(c1)-n1cccc1C2=O` was tested, and the T/C [1] was 100 % of control, the T/C [2] was 101 % of control and the T/C [3] was 98 % of control.

In the case of `O=[N+]([O-])c1ccc(Oc2ccc(S(=O)(=O)F)cc2)cc1`, the T/C [4] is reported as 106 % of control, the T/C [5] is reported as 97 % of control and the T/C [6] is reported as 98 % of control.

`O=C(CNC(=O)OCc1ccccc1)NC(Cc1c[nH]c2ccccc12)C(=O)OCc1ccccc1` (stereo unspecified) was tested, and the T/C [7] was 96 % of control, the T/C [8] was 100 % of control and the T/C [9] was 95 % of control.

In the case of `CC[N+](CC)(CC)CCC[n+]1ccc(/C=N\O)cc1`, the T/C (dose: 25.0 mg/kg/injection, schedule: Q04DX003 (ip), vehicle: saline) is reported as 100 % of control, the T/C [10] is reported as 112 % of control and the T/C (dose: 50.0 mg/kg/injection, schedule: Q04DX003 (ip), vehicle: saline) is reported as 100 % of control. The T/C [11] was 102 % of control and the T/C [12] was 100 % of control and 92 % of control.

`O=C1CCC(OC(=O)c2ccccc2)CC1` was tested, and the T/C [4] was 97 % of control, the T/C [1] was 101 % of control and the T/C [5] was 95 % of control. The T/C [2] was 101 % of control, the T/C [6] was 100 % of control and the T/C [3] was 90 % of control.

With `C/C=C\c1ccc(OC(=O)Nc2cccc(Cl)c2)c(OC)c1` the T/C [13] was 101 % of control, the T/C [14] was 95 % of control and the T/C [15] was 92 % of control.

`O=COC1CC2CCC1C2` (stereo unspecified) was tested, and the T/C [16] was 95 % of control, the T/C [17] was 98 % of control and the T/C [18] was 100 % of control.

`O=C1c2ccccc2C(=O)N1c1ccccc1O` was tested, and the T/C [13] was 98 % of control, the T/C [14] was 102 % of control and the T/C [15] was 106 % of control.

With `O=[N+]([O-])/C=C/c1cccs1` the T/C (dose: 100.0 mg/kg/injection, schedule: Q01DX001 (ip), vehicle: Klucel (hydroxypropylcellulose) (HPC)) was 98 % of control and the T/C (dose: 200.0 mg/kg/injection, schedule: Q01DX001 (ip), vehicle: Klucel (hydroxypropylcellulose) (HPC)) was 103 % of control.

With `CN(C)c1ccc(P(=O)(c2ccc(N(C)C)cc2)c2ccc(N(C)C)cc2)cc1.CN(C)c1ccc(P(=O)(c2ccc(N(C)C)cc2)c2ccc(N(C)C)cc2)cc1.[Cl][Sn]([Cl])([Cl])[Cl]` the T/C (dose: 50.0 mg/kg/injection, schedule: Q01DX009 (ip), vehicle: Klucel (hydroxypropylcellulose) (HPC)) was 87 % of control, the T/C [4] was 91 % of control and the T/C [5] was 94 % of control.

`COc1ccc(C(=O)CCCCl)cc1` was tested, and the T/C [4] was 102 % of control, the T/C [1] was 107 % of control and the T/C [5] was 102 % of control. For the same compound, the T/C [2] was 96 % of control, the T/C [6] was 89 % of control and the T/C [3] was 102 % of control.

`CC(=O)OC1CCC2(C)C(=CCC3C2CCC2(C)C3CC3OC4(CCC(C)CN4C(C)=O)C(C)C32)C1` (stereo unspecified) was tested, and the T/C (dose: 100.0 mg/kg/injection, schedule: Q01DX001 (ip), vehicle: saline with Tween-80) was 98 % of control, the T/C (dose: 200.0 mg/kg/injection, schedule: Q01DX001 (ip), vehicle: saline with Tween-80) was 95 % of control and the T/C (dose: 400.0 mg/kg/injection, schedule: Q01DX001 (ip), vehicle: saline with Tween-80) was 95 % of control.

For `OC1C2CCC(C2)C1C(O)(C(F)(F)Cl)C(F)(F)Cl` (stereo unspecified), the T/C [7] was 93 % of control, the T/C [8] was 92 % of control and the T/C [9] was 97 % of control.

In the case of `COc1cc(C=O)c(Oc2cc(C=O)ccc2OC)cc1OC`, the T/C [1] is reported as 97 % of control, the T/C [2] is reported as 100 % of control and the T/C [3] is reported as 103 % of control.

For `CC(C)(C=O)CO`, the T/C (dose: 100.0 mg/kg/injection, schedule: Q04DX002 (ip), vehicle: saline with Tween-80) was 94 % of control, the T/C (dose: 200.0 mg/kg/injection, schedule: Q04DX002 (ip), vehicle: saline with Tween-80) was 97 % of control and the T/C (dose: 400.0 mg/kg/injection, schedule: Q04DX002 (ip), vehicle: saline with Tween-80) was 91 % of control.

`CC(C)CS.[Pb]` was tested, and the T/C (dose: 100.0 mg/kg/injection, schedule: Q04DX002 (ip), vehicle: gum acacia) was 93 % of control, the T/C (dose: 200.0 mg/kg/injection, schedule: Q04DX002 (ip), vehicle: gum acacia) was 93 % of control and the T/C (dose: 400.0 mg/kg/injection, schedule: Q04DX002 (ip), vehicle: gum acacia) was 89 % of control.

For `O=C(Nc1ccc(Br)cc1C(=O)O)c1cccc(Br)c1`, the T/C (dose: 100.0 mg/kg/injection, schedule: Q01DX001 (ip), vehicle: other) was 103 % of control.

In the case of `O=[N+]([O-])c1ccc(S(=O)(=O)Nc2ccccc2-c2ccccc2)cc1`, the T/C [19] is reported as 96 % of control, the T/C [7] is reported as 91 % of control and the T/C [20] is reported as 98 % of control. The T/C [8] was 91 % of control, the T/C [21] was 96 % of control and the T/C [9] was 86 % of control.

`O=C(Nc1ccc(Cl)cc1)Nc1ccccc1F` was tested, and the T/C [8] was 91 % of control and the T/C [9] was 89 % of control.

With `c1ccc([Si]2(c3ccccc3)O[Si](c3ccccc3)(c3ccccc3)O[Si](c3ccccc3)(c3ccccc3)O2)cc1` the T/C [22] was 93 % of control and the T/C [23] was 87 % of control.

For `O=[N+]([O-])c1cc([N+](=O)[O-])c(/C=C/c2cccc(OCc3ccccc3)c2)cc1/C=C/c1cccc(OCc2ccccc2)c1`, the T/C [22] was 91 % of control, the T/C [23] was 89 % of control and the T/C (dose: 300.0 mg/kg/injection, schedule: Q01DX001 (ip), vehicle: saline) was 91 % of control.

In the case of `COc1cc(C=Nc2cc(Br)cc(Br)c2)ccc1N(CCCl)CCCl`, the T/C (dose: 1.31 mg/kg/injection, schedule: Q01DX009 (ip), vehicle: other) is reported as 113 % of control, the T/C (dose: 2.62 mg/kg/injection, schedule: Q01DX009 (ip), vehicle: other) is reported as 104 % of control and the T/C (dose: 12.5 mg/kg/injection, schedule: Q01DX001 (ip), vehicle: other) is reported as 106 % of control. For the same compound, the T/C (dose: 25.0 mg/kg/injection, schedule: Q01DX001 (ip), vehicle: other) was 120 % of control, the T/C (dose: 50.0 mg/kg/injection, schedule: Q01DX009 (ip), vehicle: other) was 124 % of control and the T/C (dose: 118.0 mg/kg/injection, schedule: Q01DX001 (ip), vehicle: carboxymethylcellulose (CMC)) was 123 % of control. For the same compound, the T/C (dose: 177.0 mg/kg/injection, schedule: Q01DX001 (ip), vehicle: carboxymethylcellulose (CMC)) was 94 % of control and 108 % of control, the T/C [24] was 124 % of control and the T/C (dose: 266.0 mg/kg/injection, schedule: Q01DX001 (ip), vehicle: carboxymethylcellulose (CMC)) was 88 % of control. For the same compound, the T/C [25] was 179 % of control.

With `O=C1CC(Nc2ccccc2)C(=O)N1c1cccc2ccccc12` (stereo unspecified) the T/C [4] was 102 % of control, the T/C [5] was 96 % of control and the T/C [6] was 91 % of control.

In the case of `CC(CCl)OC(=O)CCO` (stereo unspecified), the T/C (dose: 55.0 mg/kg/injection, schedule: Q01DX Z (ip), vehicle: methylcellulose (MC)) is reported as 104 % of control, the T/C (dose: 83.0 mg/kg/injection, schedule: Q01DX Z (ip), vehicle: methylcellulose (MC)) is reported as 100 % of control and the T/C (dose: 125.0 mg/kg/injection, schedule: Q01DX Z (ip), vehicle: methylcellulose (MC)) is reported as 89 % of control.

For `C=CC1(C)CCC2C(=CCC3C(C)(C(=O)O)CCCC23C)C1` (stereo unspecified) (tested in a mixture with another compound), the T/C (dose: 100.0 mg/kg/injection, schedule: Q01DX001 (ip), vehicle: carboxymethylcellulose (CMC)) was 104 % of control, the T/C [24] was 95 % of control and the T/C [25] was 95 % of control.

In the case of `O=C1CCCN1C[CH2][Sn]([c]1ccccc1)([c]1ccccc1)[c]1ccccc1`, the T/C [10] is reported as 104 % of control, the T/C [11] is reported as 96 % of control and the T/C (dose: 200.0 mg/kg/injection, schedule: Q01DX009 (ip), vehicle: saline) is reported as 107 % of control.

With `Clc1cc2nc3[nH]c4ccccc4c3nc2cc1Cl` the T/C (dose: 100.0 mg/kg/injection, schedule: Q01DX001 (ip), vehicle: saline) was 97 % of control.

`CCN(CC#CCOc1ccc(Br)cc1)c1ccccc1` was tested, and the T/C [16] was 105 % of control, the T/C [17] was 101 % of control and the T/C [18] was 99 % of control.

For `O=C(O)CCN1C/C(=C\c2ccc(Cl)cc2)C(=O)C1=O`, the T/C [12] was 101 % of control, the T/C (dose: 200.0 mg/kg/injection, schedule: Q04DX003 (ip), vehicle: saline) was 101 % of control and the T/C (dose: 400.0 mg/kg/injection, schedule: Q04DX003 (ip), vehicle: saline) was 101 % of control.

`CC1=CC(C)(C)Nc2ccc(Cc3ccc4c(c3)C(C)=CC(C)(C)N4)cc21` was tested, and the T/C [19] was 86 % of control, the T/C [20] was 100 % of control and the T/C [21] was 92 % of control.
